The text below walks through data of US10669284B2, “Fused thiazolopyrimidine derivatives as MNKS inhibitors” (LIFEARC, priority 2015, dated 2020).

One assay has as its target T1, AURKC (Homo sapiens, UniProt Q9UQB9).
T1 sequence (Q9UQB9 1-309): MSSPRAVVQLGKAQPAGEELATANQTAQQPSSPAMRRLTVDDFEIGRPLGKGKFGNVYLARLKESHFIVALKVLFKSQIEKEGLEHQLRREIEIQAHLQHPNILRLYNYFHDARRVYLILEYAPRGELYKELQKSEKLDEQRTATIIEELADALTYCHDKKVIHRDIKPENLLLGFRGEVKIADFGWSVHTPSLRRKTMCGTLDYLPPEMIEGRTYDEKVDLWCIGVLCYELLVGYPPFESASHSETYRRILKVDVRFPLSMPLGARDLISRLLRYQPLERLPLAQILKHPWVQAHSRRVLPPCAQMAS
As to the kind of experiment: Kinase selectivity screen AURKC. Particulars: read-out: % inhibition of AURKC.

The target of a further assay is FLT1 (Homo sapiens, UniProt P17948). In words: Kinase selectivity screen FLT1. The note with it: read-out: % inhibition of FLT1.
FLT1, sequence (P17948 27-1338, species assumed): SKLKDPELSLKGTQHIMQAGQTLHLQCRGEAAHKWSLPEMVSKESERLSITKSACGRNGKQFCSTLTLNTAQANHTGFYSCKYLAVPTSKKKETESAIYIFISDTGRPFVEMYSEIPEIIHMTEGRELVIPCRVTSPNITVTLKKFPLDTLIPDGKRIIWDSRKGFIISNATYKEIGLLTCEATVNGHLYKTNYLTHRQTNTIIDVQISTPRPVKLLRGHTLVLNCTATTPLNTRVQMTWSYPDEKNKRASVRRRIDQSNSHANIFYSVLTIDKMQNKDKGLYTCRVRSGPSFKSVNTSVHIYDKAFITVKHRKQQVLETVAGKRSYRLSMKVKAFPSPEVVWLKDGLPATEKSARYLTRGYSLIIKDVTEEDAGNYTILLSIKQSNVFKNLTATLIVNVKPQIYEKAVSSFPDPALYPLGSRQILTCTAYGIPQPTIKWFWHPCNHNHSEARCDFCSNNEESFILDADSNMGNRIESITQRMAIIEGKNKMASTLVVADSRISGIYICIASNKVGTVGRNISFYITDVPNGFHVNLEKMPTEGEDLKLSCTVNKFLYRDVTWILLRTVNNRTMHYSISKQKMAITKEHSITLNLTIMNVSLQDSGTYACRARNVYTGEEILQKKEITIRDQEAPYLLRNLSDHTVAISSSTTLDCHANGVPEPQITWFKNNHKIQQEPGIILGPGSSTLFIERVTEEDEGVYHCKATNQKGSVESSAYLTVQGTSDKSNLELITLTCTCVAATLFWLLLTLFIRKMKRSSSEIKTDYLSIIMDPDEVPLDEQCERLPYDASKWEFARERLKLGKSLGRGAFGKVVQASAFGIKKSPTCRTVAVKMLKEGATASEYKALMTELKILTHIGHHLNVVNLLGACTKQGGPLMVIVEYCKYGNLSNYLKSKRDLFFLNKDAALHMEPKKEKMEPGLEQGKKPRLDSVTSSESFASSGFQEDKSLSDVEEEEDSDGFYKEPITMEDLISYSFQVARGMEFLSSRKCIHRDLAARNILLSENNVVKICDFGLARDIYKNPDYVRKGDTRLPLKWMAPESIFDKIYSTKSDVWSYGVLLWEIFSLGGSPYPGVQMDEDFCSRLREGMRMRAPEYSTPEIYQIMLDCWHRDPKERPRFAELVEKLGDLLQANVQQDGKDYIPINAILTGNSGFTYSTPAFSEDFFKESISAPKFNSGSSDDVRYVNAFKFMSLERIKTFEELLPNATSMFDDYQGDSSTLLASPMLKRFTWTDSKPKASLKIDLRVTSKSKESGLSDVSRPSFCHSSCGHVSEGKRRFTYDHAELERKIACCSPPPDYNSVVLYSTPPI
For another assay, the target named is T2, MAP3K7 (Homo sapiens, UniProt O43318).
T2 sequence (O43318 1-303 limits assumed): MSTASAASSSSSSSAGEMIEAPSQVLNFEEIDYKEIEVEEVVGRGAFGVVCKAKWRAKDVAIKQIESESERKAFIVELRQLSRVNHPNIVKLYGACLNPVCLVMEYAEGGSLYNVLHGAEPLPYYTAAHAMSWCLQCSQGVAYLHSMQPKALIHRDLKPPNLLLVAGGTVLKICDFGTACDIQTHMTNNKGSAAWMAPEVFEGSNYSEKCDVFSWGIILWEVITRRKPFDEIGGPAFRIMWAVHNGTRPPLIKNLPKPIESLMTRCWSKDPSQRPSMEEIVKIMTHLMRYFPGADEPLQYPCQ
As to the kind of experiment: Kinase selectivity screen MAP3K7. The note with it: read-out: % inhibition of MAP3K7.

A further assay has as its target T3, ULK2 (Homo sapiens, UniProt Q8IYT8).
T3 sequence (Q8IYT8 1-1036): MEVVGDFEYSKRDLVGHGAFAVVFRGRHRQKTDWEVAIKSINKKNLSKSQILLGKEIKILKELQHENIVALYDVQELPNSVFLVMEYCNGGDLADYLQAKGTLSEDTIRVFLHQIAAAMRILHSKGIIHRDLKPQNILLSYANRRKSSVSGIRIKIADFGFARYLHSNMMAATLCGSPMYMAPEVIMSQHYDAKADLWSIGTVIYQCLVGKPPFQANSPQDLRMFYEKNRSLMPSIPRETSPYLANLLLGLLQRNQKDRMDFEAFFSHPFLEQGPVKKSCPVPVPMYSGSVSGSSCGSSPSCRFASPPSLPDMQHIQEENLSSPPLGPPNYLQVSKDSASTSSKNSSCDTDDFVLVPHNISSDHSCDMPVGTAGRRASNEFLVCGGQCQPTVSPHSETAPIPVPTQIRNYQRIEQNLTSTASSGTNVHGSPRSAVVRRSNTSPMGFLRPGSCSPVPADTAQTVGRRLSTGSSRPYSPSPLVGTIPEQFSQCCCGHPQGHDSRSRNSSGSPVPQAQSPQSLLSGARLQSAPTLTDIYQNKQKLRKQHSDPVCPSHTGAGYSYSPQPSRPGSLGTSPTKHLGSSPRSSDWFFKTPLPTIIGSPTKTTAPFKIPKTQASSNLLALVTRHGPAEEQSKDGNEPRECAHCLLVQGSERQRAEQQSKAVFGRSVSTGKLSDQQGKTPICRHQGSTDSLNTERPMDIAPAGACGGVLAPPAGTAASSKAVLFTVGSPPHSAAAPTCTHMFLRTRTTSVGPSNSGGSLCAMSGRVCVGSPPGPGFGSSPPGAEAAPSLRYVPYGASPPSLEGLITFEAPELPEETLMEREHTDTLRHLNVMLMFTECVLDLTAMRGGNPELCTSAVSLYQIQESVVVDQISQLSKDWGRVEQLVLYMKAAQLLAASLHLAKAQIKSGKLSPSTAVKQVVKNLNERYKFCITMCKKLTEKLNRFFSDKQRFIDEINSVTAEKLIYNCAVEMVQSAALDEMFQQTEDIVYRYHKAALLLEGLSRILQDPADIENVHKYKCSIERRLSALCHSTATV
As to the kind of experiment: Kinase selectivity screen ULK2. Particulars: read-out: % inhibition of ULK2.

In a further assay the target is T4, PRKCE (Homo sapiens, UniProt Q02156).
T4 sequence (Q02156 1-737): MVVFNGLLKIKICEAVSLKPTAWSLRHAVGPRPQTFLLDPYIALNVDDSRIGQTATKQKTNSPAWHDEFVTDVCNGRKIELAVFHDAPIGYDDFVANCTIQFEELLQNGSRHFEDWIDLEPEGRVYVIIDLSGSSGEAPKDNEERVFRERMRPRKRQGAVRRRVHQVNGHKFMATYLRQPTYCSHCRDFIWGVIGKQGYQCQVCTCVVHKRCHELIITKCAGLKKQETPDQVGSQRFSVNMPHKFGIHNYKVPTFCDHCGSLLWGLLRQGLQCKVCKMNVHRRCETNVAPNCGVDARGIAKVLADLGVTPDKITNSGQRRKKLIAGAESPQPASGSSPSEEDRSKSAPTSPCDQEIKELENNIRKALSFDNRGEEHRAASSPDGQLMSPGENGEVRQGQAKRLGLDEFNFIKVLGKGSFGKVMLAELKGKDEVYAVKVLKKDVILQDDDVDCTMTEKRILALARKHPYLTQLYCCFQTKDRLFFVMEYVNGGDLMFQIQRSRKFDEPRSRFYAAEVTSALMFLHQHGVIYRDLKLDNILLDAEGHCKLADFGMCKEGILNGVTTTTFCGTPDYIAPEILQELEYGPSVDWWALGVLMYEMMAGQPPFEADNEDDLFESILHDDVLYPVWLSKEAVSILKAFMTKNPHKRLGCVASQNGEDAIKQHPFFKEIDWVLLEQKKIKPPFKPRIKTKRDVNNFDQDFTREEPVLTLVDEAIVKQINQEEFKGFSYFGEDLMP
In words: Kinase selectivity screen PRKCE. Particulars: read-out: % inhibition of PRKCE.

The target of a further assay is RPS6KA1 (Homo sapiens, UniProt Q15418). As to the kind of experiment: Kinase selectivity screen RPS6KA1. The note with it: read-out: % inhibition of RPS6KA1.
RPS6KA1, sequence (Q15418 whole entry, species assumed): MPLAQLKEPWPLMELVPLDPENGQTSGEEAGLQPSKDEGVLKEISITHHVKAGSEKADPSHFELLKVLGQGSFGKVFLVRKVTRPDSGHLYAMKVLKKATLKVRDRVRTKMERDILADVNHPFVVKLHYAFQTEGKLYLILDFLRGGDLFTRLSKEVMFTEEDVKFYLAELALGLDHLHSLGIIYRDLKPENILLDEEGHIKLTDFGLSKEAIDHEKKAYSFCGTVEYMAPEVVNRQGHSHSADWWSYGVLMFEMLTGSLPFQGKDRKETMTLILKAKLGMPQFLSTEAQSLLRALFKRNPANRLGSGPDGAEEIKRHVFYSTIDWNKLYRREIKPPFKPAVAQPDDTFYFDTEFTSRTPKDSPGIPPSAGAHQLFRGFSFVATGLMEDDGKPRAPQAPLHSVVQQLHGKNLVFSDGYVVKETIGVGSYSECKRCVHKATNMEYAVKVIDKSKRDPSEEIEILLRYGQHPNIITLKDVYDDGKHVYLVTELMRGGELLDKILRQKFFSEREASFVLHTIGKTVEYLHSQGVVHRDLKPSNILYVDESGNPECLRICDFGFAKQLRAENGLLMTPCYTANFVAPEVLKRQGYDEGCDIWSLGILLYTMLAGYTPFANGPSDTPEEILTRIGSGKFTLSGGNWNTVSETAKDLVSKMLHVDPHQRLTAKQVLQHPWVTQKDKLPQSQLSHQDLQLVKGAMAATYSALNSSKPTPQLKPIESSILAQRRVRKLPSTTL
Another assay has as its target PIP5K1C (Homo sapiens, UniProt O60331). In words: Kinase selectivity screen PIP5K1C. The note with it: read-out: % inhibition of PIP5K1C.

In general, inhibition refers to how much of the control response was suppressed.

PIP5K1C, sequence (O60331 whole entry, species assumed): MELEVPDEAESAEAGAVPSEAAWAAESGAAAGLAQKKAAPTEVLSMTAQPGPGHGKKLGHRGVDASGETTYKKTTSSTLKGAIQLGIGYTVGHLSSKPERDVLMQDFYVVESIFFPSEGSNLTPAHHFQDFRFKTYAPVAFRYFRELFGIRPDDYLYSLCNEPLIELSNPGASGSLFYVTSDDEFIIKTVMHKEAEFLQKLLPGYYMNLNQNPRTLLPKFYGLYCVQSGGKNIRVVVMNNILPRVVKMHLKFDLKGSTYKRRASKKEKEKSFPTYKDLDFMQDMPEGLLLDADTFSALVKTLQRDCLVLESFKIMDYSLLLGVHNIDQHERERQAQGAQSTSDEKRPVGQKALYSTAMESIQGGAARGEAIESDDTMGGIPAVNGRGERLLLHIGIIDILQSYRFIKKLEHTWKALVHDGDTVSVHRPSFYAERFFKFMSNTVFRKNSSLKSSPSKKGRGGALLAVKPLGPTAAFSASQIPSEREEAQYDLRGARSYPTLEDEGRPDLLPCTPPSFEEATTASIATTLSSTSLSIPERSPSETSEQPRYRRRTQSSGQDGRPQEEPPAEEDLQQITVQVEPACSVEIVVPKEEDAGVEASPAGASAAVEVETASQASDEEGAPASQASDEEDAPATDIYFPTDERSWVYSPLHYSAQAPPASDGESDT

Regarding `CN(C)CCCNC(=O)c1nc2c(N3CCc4cc(F)ccc43)ncnc2s1` [Example 64, N-[3-(dimethylamino)propyl]-7-(5-fluoroindolin-1-yl)thiazolo[5,4-d]pyrimidine-2-carboxamide], the inhibition at 1 µM at AURKC turned out to be 15%; on FLT1, 27%; at MAP3K7, 0%; at ULK2, 81%; on PRKCE it was 0%; at RPS6KA1, 49%. Also, the inhibition at 1 µM on PIP5K1C amounted to 3%.
For `CC(C)Oc1cc(F)ccc1Nc1ncnc2sc(C(=O)NCC3CCNCC3)nc12` [Example 10, 7-(4-fluoro-2-isopropoxy-anilino)-N-(4-piperidylmethyl)thiazolo[5,4-d]pyrimidine-2-carboxamide], the inhibition at 1 µM is 14% on AURKC; 12% at FLT1; 20% at MAP3K7; 0% on ULK2; 4% at PRKCE; 30% at RPS6KA1. Also, at PIP5K1C, the inhibition at 1 µM was 6%.
With `O=C(NCC1CCNCC1)c1nc2c(N3CCc4cc(F)ccc43)ncnc2s1` [Example 58, 7-(5-fluoroindolin-1-yl)-N-(4-piperidylmethyl)thiazolo[5,4-d]pyrimidine-2-carboxamide], the inhibition at 1 µM was 5% at AURKC; 6% at FLT1; 14% on MAP3K7; 21% at ULK2; 0% on PRKCE; 36% at RPS6KA1. Moreover, the inhibition at 1 µM at PIP5K1C was found to be 6%.
